According to patent US8575156B2, “Cyclic inhibitors of 11β-hydroxysteroid dehydrogenase 1” (Vitae Pharmaceuticals, Inc., priority 2007, dated 2013):
Read-outs that look alike come from different tables or passages of the source.

Tests used:
11β-HSD1 [1] = target: T1, 11β-HSD1 (Homo sapiens, UniProt P28845); settings: for Average % inhibition at 100 nM: 0.1 µM; for Average % inhibition at 111.1 nM: 111.1 nM compound, 0.1111 µM; for IC50: read-out: IC50 Range, microsomes from CHO cells overexpressing human 11β-HSD1
11β-HSD1 [2] = target: T1, 11β-HSD1; assay: biochemical; settings: for IC50: IC50 Range; for inhibition at 0.1111 µM: read-out: Average % inhibition at 111.1 nM, Biological Test Example 1, 111.1 nM compound
[3] = Biological Test Example 1, 100 nM compound
[4] = Biological Test Example 1, microsomes from CHO cells overexpressing human 11β-HSD1
[5] = Biological Test Example 1, 100 nM

T1 sequence (P28845 whole entry): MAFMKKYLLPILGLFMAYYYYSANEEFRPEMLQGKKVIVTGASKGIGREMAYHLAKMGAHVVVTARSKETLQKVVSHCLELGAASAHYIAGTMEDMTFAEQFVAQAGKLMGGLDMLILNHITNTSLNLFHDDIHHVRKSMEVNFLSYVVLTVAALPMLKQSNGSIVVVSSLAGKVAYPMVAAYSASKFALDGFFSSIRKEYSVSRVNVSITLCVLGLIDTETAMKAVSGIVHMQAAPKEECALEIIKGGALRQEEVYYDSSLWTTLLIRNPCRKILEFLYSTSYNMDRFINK

SMILES | Average % inhibition at 100 nM (11β-HSD1 [1]; [3]) [%] | IC50 (11β-HSD1 [2]; [4]) [nM] | other results
O=C1OC(CCCO)(c2ccccc2)CCN1C1CC1c1ccccc1 (single isomer, unassigned) [EXAMPLE 188 Isomer 2, 6-(3-hydroxypropyl)-6-phenyl-3-(2-phenylcyclopropyl)-1,3-oxazinan-2-one] | 31.7 | > 100 | 
O=C1OC(CCO)(c2ccccc2)CCN1c1ccc(F)c(-c2ccc(F)cc2)c1 (single isomer, unassigned) [EXAMPLE 96 Isomer 1] |  | < 100 | Average % inhibition at 111.1 nM (11β-HSD1 [1]; Biological Test Example 1): 98.5%; inhibition at 0.1 µM (11β-HSD1 [2]; read-out: Average % inhibition at 100 nM, Biological Test Example 1, 100 nM compound): 88.3%
C[C@@H](c1ccc(-c2ccc(F)cc2)cc1)N1CC[C@](CC(O)CNS(C)(=O)=O)(c2ccc(F)cc2)OC1=O (single isomer, unassigned) [EXAMPLE 277 Isomer 1] |  |  | Average % inhibition at 100 nM (11β-HSD1 [1]): 91.1%; IC50 (11β-HSD1 [2]): < 100 nM
COc1ccc([C@H](C)N2CCC(CCC(N)=O)(C(C)C)OC2=O)cc1 (single isomer, unassigned) [EXAMPLE 333 Isomer 1] |  | < 100 | Average % inhibition at 100 nM (11β-HSD1 [1]; [5]): 96.2%
CC1CC(CCO)(c2ccc(F)cc2)OC(=O)N1[C@@H](C)c1ccc(Br)cc1 (single isomer, unassigned) [EXAMPLE 163 Isomer 2] | 96.9 | < 100 | 
CC(C)(C)OC(=O)N1CCC(N2CCC(CCCO)(c3ccccc3)OC2=O)C1 (single isomer, unassigned) [EXAMPLE 208 Isomer 2] | 38.5 | > 100 | 
CC(C)(C)OC(=O)N1CCC(N2CCC(CCCO)(c3ccccc3)OC2=O)C1 (single isomer, unassigned) [EXAMPLE 208 Isomer 4] | 29.3 | < 100 | 
COc1ccc([C@H](C)N2CCC(CCCO)(C(C)C)OC2=O)cc1 (single isomer, unassigned) [EXAMPLE 332 Isomer 2] |  | > 100 | Average % inhibition at 100 nM (11β-HSD1 [1]; [5]): 32.2%
O=C1OC(CCO)(c2ccccc2F)CCN1c1cccc(-c2ccc(F)cc2)n1 (single isomer, unassigned) [EXAMPLE 104 Isomer 2] |  | < 100 | Average % inhibition at 111.1 nM (11β-HSD1 [1]; Biological Test Example 1): 98.1%
CC(C)(C)OC(=O)N1CCC(N2CCC(CCCO)(c3ccccc3)OC2=O)C1 (single isomer, unassigned) [EXAMPLE 208 Isomer 3] | 64.6 | < 100 | 
C=CCC1(c2cccs2)CCN([C@@H](C)c2ccc(Br)cc2)C(=O)O1 (single isomer, unassigned) [EXAMPLE 157 Isomer 2] | 92.9 |  | IC50 (11β-HSD1 [1]; Biological Test Example 1): < 100 nM; inhibition at 0.1111 µM (11β-HSD1 [2]): 90.7%
CC(C)C1(CCCO)CCN([C@@H](C)c2ccc(Cl)cc2)C(=O)O1 (single isomer, unassigned) [EXAMPLE 187 Isomer 1] |  | < 100 | Average % inhibition at 100 nM (11β-HSD1 [1]): 98.7%
CC(C)C1(CCC(N)=O)CCN([C@@H](C)c2ccc(Cl)cc2)C(=O)O1 (single isomer, unassigned) [EXAMPLE 334 Isomer 2] |  | > 100 | Average % inhibition at 100 nM (11β-HSD1 [1]; [5]): 31.9%

Continued, in another order:

Average % inhibition at 100 nM (11β-HSD1 [1]; [3]) [%] | IC50 (11β-HSD1 [2]; [4]) [nM] | SMILES | other results
86.6 | < 100 | C[C@@H](c1ccc(-c2ccc(F)cc2)cc1)N1CC[C@](CC(O)CN(C)S(C)(=O)=O)(c2ccc(F)cc2)OC1=O (single isomer, unassigned) [EXAMPLE 278 Isomer 1] | 
94.2 | < 100 | CC(C)C1(CC(O)CO)CCN([C@@H](C)c2ccc(-c3ccc(F)cc3F)cc2)C(=O)O1 (single isomer, unassigned) [EXAMPLE 223 Isomer 1] | 
 | < 100 | C[C@@H](c1ccc(Br)cc1)N1CCC(CCO)(c2ccc(F)cc2F)OC1=O (single isomer, unassigned) [EXAMPLE 365 Isomer 1] | Average % inhibition at 100 nM (11β-HSD1 [1]; [5]): 97.5%
90.8 |  | C[C@@H](c1ccc(-c2ccc(F)cc2F)cc1)N1CC[C@](CC(O)CO)(c2ccc(F)cc2)OC1=O (single isomer, unassigned) [EXAMPLE 52 Isomer 2] | IC50 (11β-HSD1 [1]; Biological Test Example 1): < 100 nM; inhibition at 0.1111 µM (11β-HSD1 [2]): 97%
95.7 | < 100 | C[C@@H](c1ccc(-c2ccc(F)cc2F)cc1)N1CCC(CCCO)(c2cccs2)OC1=O (single isomer, unassigned) [EXAMPLE 171 Isomer 1] | 
35.4 | > 100 | C[C@@H](c1ccc(-c2ccc(F)cc2F)cc1)N1CC[C@](CC(O)CNC(N)=O)(c2ccc(F)cc2)OC1=O (single isomer, unassigned) [EXAMPLE 276 Isomer 2] | 
17.4 | > 1000 | C[C@@H](c1ccccc1)N1CCC(CO)(c2ccc(F)cc2)OC1=O (single isomer, unassigned) [EXAMPLE 114 Isomer 1] | 
 | > 1000 | O=C1OC(CCO)(c2ccccc2)CCN1c1ccc(F)c(-c2ccc(F)cc2)c1 (single isomer, unassigned) [EXAMPLE 96 Isomer 2] | Average % inhibition at 111.1 nM (11β-HSD1 [1]; Biological Test Example 1): 9.7%
29.3 | > 100 | COc1ccc([C@H](C)N2CCC(CC(O)CO)(c3ccccc3)OC2=O)cc1 (single isomer, unassigned) [EXAMPLE 286 Isomer 4] | 
97.1 | < 100 | CC(C)C1(CC(O)CO)CCN([C@@H](C)c2ccc(-c3ccc(F)cc3F)cc2)C(=O)O1 (single isomer, unassigned) [EXAMPLE 223 Isomer 2] | 
53.6 | < 100 | C[C@@H](c1ccc(-c2ccc(F)cc2F)cc1)N1CC[C@](CC(O)CN(C)C)(c2ccc(F)cc2)OC1=O (single isomer, unassigned) [EXAMPLE 273 Isomer 1] | 
